Measured values published in the supplement of paper PMC10307832.

Columns and labels:
Assay in all cases: relative viability (nuclei count vs DMSO), 5 days (fraction); higher = more cells survive
Ibrutinib + Trametinib = compound: C=CC(=O)N1CCC[C@@H](n2nc(-c3ccc(Oc4ccccc4)cc3)c3c(N)ncnc32)C1 [Ibrutinib] + CC(=O)Nc1cccc(-n2c(=O)n(C3CC3)c(=O)c3c(Nc4ccc(I)cc4F)n(C)c(=O)c(C)c32)c1 [Trametinib] (partner 0.02 µM)
Summary of the method: (§1)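 A single step with final 0.05% Triton X-100, 1% formaldehyde and 1 ug/ml Hoechst fixed the cells and stained nuclei 5 days after treatment. Lung cancer cell lines in 1536-well plates had been treated by pin tool the day after seeding with one drug alone or a fixed anchor-drug dose plus five library-drug doses (not always all listed) in √10 steps, and nuclei were counted on 4× images. Relative viability is the ratio of nuclei in treated wells to nuclei in vehicle wells, taken as the median of duplicate plates.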

Ibrutinib + Alpelisib = compound: C=CC(=O)N1CCC[C@@H](n2nc(-c3ccc(Oc4ccccc4)cc3)c3c(N)ncnc32)C1 [Ibrutinib] + Cc1nc(NC(=O)N2CCC[C@H]2C(N)=O)sc1-c1ccnc(C(C)(C)C(F)(F)F)c1 [Alpelisib] (partner 2 µM)
Summary of the method: as §1

BMX-IN-1 + Decitabine = compound: C=CC(=O)Nc1cc(-n2c(=O)ccc3cnc4ccc(-c5ccc(NS(C)(=O)=O)cc5)cc4c32)ccc1C [BMX-IN-1] + Nc1ncn([C@H]2C[C@H](O)[C@@H](CO)O2)c(=O)n1 [Decitabine] (partner 2 µM)
Summary of the method: as §1

PAC-1 + Pictilisib = compound: C=CCc1cccc(/C=N/NC(=O)CN2CCN(Cc3ccccc3)CC2)c1O [PAC-1] + CS(=O)(=O)N1CCN(Cc2cc3nc(-c4cccc5[nH]ncc45)nc(N4CCOCC4)c3s2)CC1 [Pictilisib] (partner 1 µM)
Summary of the method: as §1

| Cell Line | relative viability (Ibrutinib + Trametinib; first compound 0.005 µM) | relative viability (Ibrutinib + Trametinib; first compound 0.01581 µM) | relative viability (Ibrutinib + Trametinib; first compound 0.05 µM) | relative viability (Ibrutinib + Trametinib; first compound 0.1581 µM) | relative viability (Ibrutinib + Trametinib; first compound 0.5 µM) | relative viability (Ibrutinib + Alpelisib; first compound 0.005 µM) | relative viability (Ibrutinib + Alpelisib; first compound 0.01581 µM) | relative viability (Ibrutinib + Alpelisib; first compound 0.1581 µM) | relative viability (Ibrutinib + Alpelisib; first compound 0.5 µM) | relative viability (BMX-IN-1 + Decitabine; first compound 0.02 µM) | relative viability (BMX-IN-1 + Decitabine; first compound 0.2 µM) | relative viability (BMX-IN-1 + Decitabine; first compound 0.6325 µM) | relative viability (BMX-IN-1 + Decitabine; first compound 2 µM) | relative viability (PAC-1 + Pictilisib; first compound 0.02 µM) | relative viability (PAC-1 + Pictilisib; first compound 0.06325 µM) | relative viability (PAC-1 + Pictilisib; first compound 0.2 µM) | relative viability (PAC-1 + Pictilisib; first compound 2 µM) | relative viability (Ibrutinib + Alpelisib; first compound 0.05 µM) |
| --- | --- | --- | --- | --- | --- | --- | --- | --- | --- | --- | --- | --- | --- | --- | --- | --- | --- | --- |
| NCI-H1666 | 0.809 | 0.849 | 0.832 | 0.938 | 0.744 | 0.677 | 0.726 | 1.11 | 0.426 | 0.673 | 0.746 | 0.839 | 0.716 | 0.501 | 0.398 | 0.358 | 0.427 | – |
| NCI-H1734 | 0.636 | 0.67 | 0.677 | 0.596 | 0.618 | 0.557 | 0.583 | 0.669 | 0.654 | 0.534 | 0.568 | 0.522 | 0.831 | 0.446 | 0.448 | 0.431 | 0.468 | 0.705 |
| NCI-H1755 | 0.761 | 0.796 | 0.796 | 0.793 | 0.746 | 0.939 | 0.893 | 0.981 | 0.932 | 0.644 | 0.683 | 0.795 | 0.758 | 0.445 | 0.434 | 0.391 | 0.438 | 1.03 |
| NCI-H1792 | – | 0.404 | 0.48 | 0.44 | 0.36 | 0.716 | 0.698 | 0.782 | 0.65 | 0.539 | 0.615 | 0.525 | 0.568 | 0.319 | 0.279 | 0.287 | 0.285 | 0.764 |
| NCI-H1793 | 0.485 | 0.423 | 0.436 | 0.419 | 0.401 | – | 0.635 | 0.587 | 0.575 | 0.45 | 0.535 | 0.471 | 0.589 | 0.344 | 0.345 | 0.254 | 0.332 | 0.605 |
| NCI-H1915 | 0.324 | 0.295 | 0.28 | 0.292 | 0.283 | – | 1 | 1.07 | 1.05 | 0.282 | 0.272 | 0.284 | 0.273 | 0.875 | 1.02 | 0.929 | 0.951 | 1.06 |
| NCI-H1944 | 0.423 | 0.369 | 0.395 | 0.363 | 0.374 | 0.659 | 0.685 | 0.755 | 0.521 | 0.459 | 0.402 | 0.481 | 0.426 | 0.3 | 0.345 | 0.323 | 0.33 | 0.784 |
| NCI-H1975 | 0.274 | 0.303 | 0.287 | 0.302 | 0.213 | 0.594 | 0.418 | 0.634 | 0.212 | 0.362 | 0.345 | 0.42 | 0.417 | 0.281 | 0.304 | 0.308 | 0.303 | 0.475 |
| NCI-H1993 | 0.487 | 0.571 | 0.518 | 0.617 | 0.398 | 0.644 | 0.715 | – | 0.742 | 0.678 | 0.525 | 0.53 | 0.631 | 0.696 | 0.881 | 0.844 | 0.823 | 0.613 |
| NCI-H2009 | 0.208 | 0.252 | 0.253 | 0.306 | 0.234 | 1.24 | 1.12 | 1.15 | 1.16 | 0.381 | 0.402 | 0.41 | 0.368 | 0.832 | 0.866 | 0.792 | 0.789 | 1.16 |
| NCI-H2023 | 0.448 | 0.455 | 0.491 | 0.485 | 0.462 | 0.567 | 0.574 | 0.66 | 0.568 | 0.236 | 0.247 | 0.223 | 0.295 | 0.224 | 0.262 | 0.213 | 0.258 | 0.492 |
| NCI-H2085 | 0.499 | 0.548 | 0.566 | 0.661 | 0.463 | 0.965 | 0.893 | 0.977 | 0.743 | 0.553 | 0.595 | 0.564 | 0.597 | 0.446 | 0.518 | 0.422 | 0.485 | 0.862 |
| NCI-H2087 | 0.166 | 0.196 | 0.199 | – | 0.2 | 1.09 | – | – | 1.19 | 0.29 | 0.343 | 0.239 | 0.325 | 0.852 | 0.901 | 0.782 | 0.683 | 1.19 |
| NCI-H2126 | 0.5 | 0.474 | 0.522 | 0.559 | 0.466 | – | 0.7 | 0.763 | 0.606 | 0.522 | 0.515 | 0.59 | 0.601 | 0.43 | 0.478 | 0.495 | 0.49 | 0.769 |
| NCI-H2170 | 0.806 | 0.744 | 0.637 | 0.955 | 0.184 | 0.728 | 0.362 | 0.773 | 0.231 | 0.454 | 0.499 | 0.469 | 0.495 | 0.28 | 0.315 | 0.362 | 0.27 | 0.278 |
| NCI-H2347 | 0.283 | 0.228 | 0.37 | 0.245 | 0.239 | 1 | 1.1 | 1.01 | 1.12 | 0.647 | 0.678 | 0.608 | 0.75 | 0.51 | 0.723 | 0.604 | 0.591 | 0.933 |
| NCI-H2405 | 0.546 | 0.558 | – | – | 0.448 | 0.706 | 0.713 | – | 0.706 | 0.702 | 0.723 | 0.851 | 0.716 | 0.44 | 0.455 | 0.45 | 0.376 | 0.83 |
| NCI-H3122 | 0.23 | 0.244 | 0.251 | 0.223 | 0.221 | 0.686 | 0.743 | 0.583 | 0.711 | 0.421 | 0.33 | 0.548 | 0.514 | 0.611 | 0.564 | 0.645 | 0.566 | 0.873 |
